Results: PMC10606151, “The Functional Characteristics and Soluble Expression of Saffron CsCCD2” (International Journal of Molecular Sciences, 2023)

Assays:
CsCCD2 (TRX-CsCCD2) [1] = molecular target: T1, CsCCD2 (TRX-CsCCD2) (Crocus sativus, UniProt A0A075W695); assay: in vivo cleavage in β-carotene-producing E. coli, UPLC and UPLC-MS/MS of crocetin dialdehyde; type: cell-based; details: E. coli BL21(DE3) with pACCAR16Δcrt, 0.3 mM IPTG, 16 °C, 24 h; product named crocetin dialdehyde
T1 construct: gene CCD2; CsCCD2 in pET32a, N-terminal TrxA-6xHis-thrombin-S tag fusion, tags kept; synthetic gene with synonymous G1179T; E. coli BL21(DE3) accumulating carotenoids
T1 sequence (A0A075W695 entry or part of it): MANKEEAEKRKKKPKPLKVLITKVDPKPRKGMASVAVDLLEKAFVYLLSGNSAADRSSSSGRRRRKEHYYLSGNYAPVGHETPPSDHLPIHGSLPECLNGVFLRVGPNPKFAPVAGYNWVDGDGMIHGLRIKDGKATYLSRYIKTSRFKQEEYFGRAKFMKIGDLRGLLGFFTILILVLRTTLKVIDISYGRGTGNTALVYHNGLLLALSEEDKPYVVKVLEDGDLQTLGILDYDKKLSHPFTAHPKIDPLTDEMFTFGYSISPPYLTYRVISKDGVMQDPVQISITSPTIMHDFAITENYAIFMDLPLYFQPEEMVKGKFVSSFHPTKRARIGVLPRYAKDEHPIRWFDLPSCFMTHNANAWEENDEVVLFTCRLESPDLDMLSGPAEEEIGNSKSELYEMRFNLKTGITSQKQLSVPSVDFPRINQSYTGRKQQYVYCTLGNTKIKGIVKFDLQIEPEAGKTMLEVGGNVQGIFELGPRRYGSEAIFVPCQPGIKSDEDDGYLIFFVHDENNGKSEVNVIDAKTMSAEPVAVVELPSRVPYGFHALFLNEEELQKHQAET

CsCCD2 (TRX-CsCCD2) [2] = molecular target: T1, CsCCD2 (TRX-CsCCD2); assay: in vivo cleavage in zeaxanthin-producing E. coli, UPLC and UPLC-MS/MS of crocetin dialdehyde; type: cell-based; details: E. coli BL21(DE3) with pACCAR25ΔcrtX, 0.3 mM IPTG, 16 °C, 24 h; product crocetin dialdehyde

Structure (SMILES)	in vivo cleavage in β-carotene-producing E. coli, UPLC and UPLC-MS/MS of croceti (CsCCD2 (TRX-CsCCD2) [1])	in vivo cleavage in zeaxanthin-producing E. coli, UPLC and UPLC-MS/MS of croceti (CsCCD2 (TRX-CsCCD2) [2])
CC1=C(/C=C/C(C)=C/C=C/C(C)=C/C=C/C=C(C)/C=C/C=C(C)/C=C/C2=C(C)CCCC2(C)C)C(C)(C)CCC1 [β-carotene]	These results revealed that TRX-CsCCD2 cleaved zeaxanthin, β-carotene, and lycopene	
CC1=C(/C=C/C(C)=C/C=C/C(C)=C/C=C/C=C(C)/C=C/C=C(C)/C=C/C2=C(C)C[C@@H](O)CC2(C)C)C(C)(C)C[C@H](O)C1 [zeaxanthin]		These results revealed that TRX-CsCCD2 cleaved zeaxanthin, β-carotene, and lycopene
